Source: patent publication US20020173541A1, “Arthropod-controlling composition” (SUMITOMO CHEMICAL COMPANY, LIMITED, priority 2001, published 2002)

Test system: adult German cockroaches
Assay: Knock-down test: oil solution sprayed on adult German cockroaches
Assay type: in vivo, Blattella germanica (German cockroach)
Description: According to Production example 7, each of the 0.5% oil solutions of The Pyrone Compound and Reference compound 1 was prepared. A square of paper (side: 20 cm) was covered on the iron net set on the bottom of the metallic chamber (46 cm×46 cm, 70 cm in height). A container (8.75 cm in diameter, 7.5 cm in height, having 16-mesh net at the bottom and spreading butter on the wall for preventing escape) was set on the paper. In the container, ten (5 males and 5 females) adult German cockroaches were released. By means of spray gun, 1.5 ml of the above oil solution was applied to the test insects at pressure of 4.1×10^4 Pa from the upper part of the chamber. The container was taken out of the chamber 30 seconds after spraying and the test insects were transferred to a plastic cup. Two minutes after spraying, the knocked-down cockroaches were counted. According to Production example 7, each of the 0.25% oil solutions of The Pyrone Compound and Reference compounds 2 and 3 was prepared. The same procedures as Test Example 1 gave the knock-down percentages and KT50 values (minutes for knocked-down 50% of cockroaches) in Table 2.

[1] = 0.5% oil solution, 1.5 ml sprayed, knocked-down cockroaches counted two minutes after spraying
[2] = 0.25% oil solution, same procedures as Test Example 1, average of 6 (The Pyrone Compound) or 3 (references) repetitions

| SMILES | Knock-down percentage (%) [1] [%] | KT50 (minutes for knocked-down 50% of cockroaches) [2] | Knock-down percentage (%) [2] [%] |
| --- | --- | --- | --- |
| Cc1cc(O)c(C(=O)C(C)C)c(=O)o1 [Reference compound 1, 4-hydroxy-6-methyl-3-(2-methylpropanoyl)-2-pyrone] | 10 |  |  |
| CCC(CC)C(=O)c1c(O)cc(C)oc1=O [Reference compound 2, 4-hydroxy-6-methyl-3-(2-ethylbutanoyl)-2-pyrone] |  | more than 10 minutes | 0 |
| Cc1cc(O)c(C(=O)C2CC2)c(=O)o1 [Reference compound 3, 4-hydroxy-6-methyl-3-(cyclopropanecarbonyl) -2-pyrone] |  | more than 10 minutes | 6.7 |
| Cc1cc(O)c(C(=O)CC(C)C)c(=O)o1 [The Pyrone Compound, 4-hydroxy-6-methyl-3-(3-methylbutanoyl)-2-pyrone] | 100 | 0.85 min | 95 |
